Reference: patent US20180325891A1, “OCTAHYDRO AZADECALIN FORMULATIONS” (Corcept Therapeutics, Inc., priority 2017, published 2018)

Assay: Solubility assessment of CORT125281 in various excipients
Type: physicochemical
Procedure: The solubility of the API was assessed in Labrasol, Kolliphor RH40, Kollisolv P124 and Kolliphor HS15 in order to assess scope for formulation alternatives. […] It is probable that these would be able to be solubilized given more time/energy input.

For `Cn1ncc(S(=O)(=O)N2CC[C@H]3Cc4c(cnn4-c4ccc(F)cc4)C[C@]3(C(=O)c3cc(C(F)(F)F)ccn3)C2)n1` [CORT125281, ((4aR,8aS)-1-(4-fluorophenyl)-6-((2-methyl-2H-1,2,3-triazol-4-yl)sulfonyl)-4,4a,5,6,7,8,8a,9-octahydro-1H-pyrazolo[3,4-g]isoquinolin-4a-yl)(4-(trifluoromethyl)pyridin-2-yl)methanone], which “solubility of the API in excipient, visual and microscopic analysis” value (Kolliphor HS15 mix) is on record?
The value was “visibly clear, but upon microscopic analysis, they were found to contain a small number of API crystals”.

What about the “solubility of the API in excipient, visual and microscopic analysis” value (Labrasol mix) of the same molecule?
The value was “visibly clear, but upon microscopic analysis, they were found to contain a small number of API crystals”.

And the “solubility of the API in excipient” value (in Kolliphor RH40)?
Its value is less than 40 mg/g.

And the “solubility of the API in excipient” value (in Kollisolv P124)?
The value was less than 40 mg/g.
